# Tested on: rat adjuvant-induced arthritis model (hind paw volume)
# Assay: Rat Adjuvant Induced Arthritis Assay (AA)
# Format: in vivo, Male Lewis rats
# Conditions: for Paw Swelling on Day 20 (Mean): vehicle mean 1.11
# Experimental: Rat Adjuvant Induced Arthritis Assay (AA)
# Male Lewis rats (150-175 g; Harlan, n=8 treatment group) were immunized at the base of the tail with 100 μl of 10 mg/ml freshly ground Mycobacterium butyricum (Difco Laboratories) in incomplete Freund's adjuvant (sigma). Animals were dosed once daily with the test article (as a solution or suspension in the vehicle) or vehicle alone (polyethylene glycol 300, “PEG300”) starting from the day of immunization. The volumes of their hind paws were measured in a water displacement plethysmometer (Ugo Basile, Italy). The baseline paw measurements were taken before onset of the disease (between day 7 to day 10). The paw measurements were then taken three times a week until the end of the study on day 20. All procedures involving animals were reviewed and approved by the Institutional Animal Care Use Committee.
# A compound of the present invention was tested in the Rat Adjuvant Induced Arthritis assay described hereinabove and the results are shown in Table F.
structure (smiles),measurement,setting,value
"O=C(O)C1CN(Cc2ccc(-c3noc(-c4onc(-c5ccccn5)c4C(F)(F)F)n3)cc2)C1 [Example 1, 1-(4-(5-(3-(Pyridin-2-yl)-4-(trifluoromethyl)isoxazol-5-yl)-1,2,4-oxadiazol-3-yl)benzyl)azetidine-3-carboxylic acid]",Paw Swelling on Day 20 (Mean),0.03 mg/kg once daily from day of immunization,1.48 mL
same,Paw Swelling on Day 20 (Mean),0.1 mg/kg once daily from day of immunization,1.41 mL
same,Paw Swelling on Day 20 (Mean),0.5 mg/kg once daily from day of immunization,0.72 mL
same,Paw Swelling on Day 20 (Mean),3.0 mg/kg once daily from day of immunization,0.07 mL
same,disease progression as measured by paw swelling (in words),"Lewis rat, prophylactic oral dosing",inhibits disease progression

# — patent US8404672B2, “Substituted heterocyclic compounds” (Bristol-Meyers Squibb Company, priority 2009, dated 2013)
